What was measured:
[1] = test system: Acinetobacter baumannii strains resistant to colistine; assay: Minimal inhibitory concentration (MIC), microdilution in MHBII; type: cell-based; settings: 5×10^5 CFU/ml, 18 h; for CMI (MIC) Ab 11: strain Ab 11, MHBII; for CMI (MIC) Ab 14: strain Ab 14, MHBII; for CMI (MIC) Ab 17: strain Ab 17, MHBII; for CMI (MIC) Ab 21R: strain Ab 21R; for CMI (MIC) Ab 21R / CMI (MIC) Ab 22P: MHBII; for CMI (MIC) Ab 22P: strain Ab 22P; for CMI (MIC) Ab 24: strain Ab 24, MHBII
From the text: (§1) All of the strains used were Acinetobacter baumannii strains resistant to colistine: Resistance (R)≥4 Sensibility (S)≤2—All of these strains have been disclosed in Valencia R, Arroyo L A, Conde M, Aldana J M, Torres M J, Fernandez-Cuenca F, et al. Nosocomial outbreak of infection with pan-drug-resistant Acinetobacter baumannii in a tertiary care university hospital. Infection control and hospital epidemiology. 2009; 30(3):257-63. The specific strains used were the following: 1, 10, 11, 14, 16, 17, 19, 20, 21R, 22P, 24, 99 and 113.
Microdilution in cell medium Mueller Hinton Broth II (MHBII). This technique was carried out solely in those piperazines which presented inhibitory activity in the screening study.
We used decreasing concentrations of each piperazine derivative (from 50 μM -0.05 μM) in a concentration of 5×10^5 CFU/ml of each strain of A. baumannii in 96 well plates. These plates were incubated for 18 hours at a temperature 37° C.

[2] = test system: Acinetobacter baumannii strains resistant to colistine; assay: Screening of inhibition of bacterial growth at 50 μM; type: cell-based; settings: 5×10^5 CFU/ml, 18 h; for Screening, growth inhibition Ab 11: strain Ab 11, 50 μM; for Screening, growth inhibition Ab 14: strain Ab 14, 50 μM; for Screening, growth inhibition Ab 17: strain Ab 17, 50 μM; for Screening, growth inhibition Ab 21R: strain Ab 21R; for Screening, growth inhibition Ab 21R / Screening, growth inhibition Ab 22P: 50 μM; for Screening, growth inhibition Ab 22P: strain Ab 22P; for Screening, growth inhibition Ab 24: strain Ab 24, 50 μM
From the text: as §1
Evaluation of the inhibition of the bacterial growth of the 4 families of piperazines derivatives was performed by using a final concentration of 50 μM of each piperazine derivative in a concentration of 5×10^5 CFU/ml of each strain of A. baumannii in 96-well plates.
These plates were incubated for 18 hours at 37° C.

[3] = test system: HAdV5-GFP; assay: Plaque assay, HAdV5-GFP in 293β5 cells; type: cell-based
Experimental: 1.5. Plaque assay. For low MOI infections, active compounds were further evaluated in a plaque assay. 293β5 cells were seeded in 6-well plates at 4×10^5 cells per well in duplicate for each condition. When cells reached 80-90% confluency, they were infected with HAdV5-GFP or HAdV16-GFP (0.06 vp/cell) and rocked for 2 h at 37° C. The inoculum was removed and the cells were washed once with PBS. The cells were then carefully overlaid with 4 ml/well of equal parts of 1.6% […] Difco Agar Noble (Becton, Dickinson & Co, Sparks, MD) and 2× EMEM (BioWhittaker) supplemented with 2x penicillin/streptomycin, 2× L-glutamine and 10% FBS. The mixture also contained compound in concentrations ranging from 5 to 1 μM. Following incubation for 7 days at 37° C., plates were scanned with a Typhoon 9410 imager (GE Healthcare Life Sciences), and plaques were quantified with ImageJ.43
For the plaque assay 293β5 cells were infected with HAdV5-GFP (in the presence of compound at 10 μM) (Table 2). From this generation of compounds, our primary screening identified 4 compounds (12, 13, 22 and 25) that inhibited HAdV5-GFP plaque formation >90% compared to a control with the same volume of DMSO.

[4] = test system: A549 cells; assay: Cytotoxicity assay (alamarBlue cell viability); type: cell-based, Human
Experimental: 1.4. Cytotoxicity assay. The cytotoxicity of the compounds was measured using the AlarmBlue cell viability assay (Invitrogen) according to the manufacturer's instructions. Actively dividing A549 cells were incubated with compounds for 48 h. After the incubation the alamarBlue reagent was added to the cells ( 1/10th alamarBlue reagent in culture medium) for an extra 4 h. The 50% cell cytotoxic concentration (CC50) of the molecules was calculated according to Cheng et al.42 The selectivity index (SI) was evaluated as the ratio of CC50 to IC50, where the IC50 is defined as the concentration of compound that inhibits HAdV infection by 50%.

[5] = test system: HAdV5-GFP; assay: Entry assay, HAdV5-GFP in A549 cells (GFP expression); type: cell-based
Experimental: 1.3. Entry assay. An initial rapid screening was performed using human A549 epithelial cells (3×10^5 cells/well in Corning black wall, clear bottom 96-well plates) infected with HAdV5-GFP (2,000 vp/cell) in the presence of 50 μM of the candidate antiviral compounds. Virus was preincubated with the compounds (individual and mixed) for 45 minutes at 4° C., and then added to cells. A standard infection curve was generated in parallel by infecting cells in the absence of compounds using serial two-fold dilutions of virus. All reactions were done in triplicate. Cells, virus and compounds were incubated for 48 h at 37° C. and 5% CO2. Infection, as measured by HAdV-mediated GFP expression, was analyzed using a Typhoon 9410 imager (GE Healthcare Life Sciences), and quantified with ImageQuantTL (GE Healthcare Life Sciences).

Structure (SMILES)	CMI (MIC) Ab 11 [1] [µM]	CMI (MIC) Ab 14 [1] [µM]	CMI (MIC) Ab 17 [1] [µM]	CMI (MIC) Ab 21R [1] [µM]	CMI (MIC) Ab 22P [1] [µM]	CMI (MIC) Ab 24 [1] [µM]	Screening, growth inhibition Ab 11 [2] [µM]	Screening, growth inhibition Ab 14 [2] [µM]	Screening, growth inhibition Ab 17 [2] [µM]	Screening, growth inhibition Ab 21R [2] [µM]	Screening, growth inhibition Ab 22P [2] [µM]	Screening, growth inhibition Ab 24 [2] [µM]	Inhibition assay in plaque [3]	CC50 [4] [µM]	Starting Inhibition assay [5]
CC1CN(C(=O)OC(C)(C)C)CCN1C(=S)Nc1ccc(Cl)cc1 (stereo not shown) [Vip 580]	50	50	50	50	50	50	<50	<50	<50	<50	<50	<50	73.43 ± 4.19	167	64.11 ± 16.81
CC1CN(C(=O)OC(C)(C)C)CCN1C(=S)Nc1ccc(C#N)cc1 (stereo not shown) [Vip 584]	50	50	25	50	50	50	<50	<50	<50	<50	<50	<50	88.91 ± 15.92	175	58.11 ± 25.72
COc1ccc(NC(=S)N2CCN(C(=O)OC(C)(C)C)CC2C)cc1 (stereo not shown) [Vip 590]		>50						<50					36.55 ± 30.13		62.79 ± 17.03
Cc1ccc(NC(=S)N2CCN(C(=O)OC(C)(C)C)CC2C)cc1 (stereo not shown) [Vip 591]		>50	50	50				<50	<50	<50			49.11 ± 4.73		56.61 ± 17.69
CC1CN(C(=O)OC(C)(C)C)CCN1C(=S)Nc1cc(C(F)(F)F)cc(C(F)(F)F)c1 (stereo not shown) [Vip 592]		3.12						<50					11.11 ± 19.25		71.76 ± 15.00
CC1CN(C(=O)OC(C)(C)C)CCN1C(=S)Nc1ccc(C(F)(F)F)cc1 (stereo not shown) [Vip 604]				25	25	25				<50	<50	<50	73.43 ± 22.49		43.24 ± 17.18
CC1CN(C(=O)Cc2ccccc2)CCN1C(=S)Nc1ccc(C(F)(F)F)cc1 (stereo not shown) [Vip 633]	25		25			50	<50		<50			<50	45.36 ± 16.56		43.12 ± 17.16
Cc1ccc(NC(=S)N2CCN(C(=O)Cc3ccccc3)CC2C)cc1 (stereo not shown) [Vip 636]	50		25	25		50	<50		<50	<50		<50	13.79 ± 25.70		73.72 ± 14.39
COc1ccc(NC(=S)N2CCN(C(=O)Cc3ccccc3)CC2C)cc1 (stereo not shown) [Vip 637]			50			>50			<50			<50	29.36 ± 36.56		61.99 ± 17.15
CC1CN(C(=O)Cc2ccccc2)CCN1C(=S)Nc1ccc(F)cc1 (stereo not shown) [Vip 638]						50						<50	28.90 ± 23.21		72.06 ± 14.91

From patent publication US20190308956A1, “PIPERAZINE DERIVATIVES AS ANTIVIRAL AGENTS WITH INCREASED THERAPEUTIC ACTIVITY” (SERVICIO ANDALUZ DE SALUD, priority 2016, published 2019)
